Laboratory results: patent US20240270759A1, “Preparation of SHP2 phosphatase inhibitors and its applications” (Ya Therapeutics Inc, priority 2021, published 2024)

Target: T1, SHP2 full-length protein (Homo sapiens, UniProt Q06124)
T1 construct: purchased BPS Bioscience #79330
T1 sequence (Q06124 1-593): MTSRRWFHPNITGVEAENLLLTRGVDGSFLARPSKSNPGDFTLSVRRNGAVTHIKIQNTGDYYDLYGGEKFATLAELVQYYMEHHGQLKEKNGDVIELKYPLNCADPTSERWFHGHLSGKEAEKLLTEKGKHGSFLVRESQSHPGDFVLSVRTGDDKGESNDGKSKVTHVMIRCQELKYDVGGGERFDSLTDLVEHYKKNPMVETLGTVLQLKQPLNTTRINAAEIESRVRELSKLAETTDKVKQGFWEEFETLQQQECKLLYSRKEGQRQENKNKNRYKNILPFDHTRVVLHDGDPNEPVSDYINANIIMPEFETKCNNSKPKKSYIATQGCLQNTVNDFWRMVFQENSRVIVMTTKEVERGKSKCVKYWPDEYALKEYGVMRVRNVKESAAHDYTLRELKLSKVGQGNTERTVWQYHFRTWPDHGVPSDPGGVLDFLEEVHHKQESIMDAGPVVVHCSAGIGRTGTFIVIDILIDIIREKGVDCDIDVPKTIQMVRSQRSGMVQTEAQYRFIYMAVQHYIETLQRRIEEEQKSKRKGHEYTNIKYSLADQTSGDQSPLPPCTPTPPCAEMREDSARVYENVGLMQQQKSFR
Test: SHP2 allosteric inhibition experiment (Homogeneous Full Length SHP-2 Assay Kit)
Type: biochemical
Conditions: full-length SHP2 0.06 nM with SHP-2 activating peptide; ten-point, 1 μM to 0.05 nM; read-out: IC50 Values of Compounds Inhibiting SHP2
Source text: The following further describes and explains the present invention in combination with test examples, but these examples are not meant to limit the scope of the present invention. SHP2 allosteric inhibition experiment
The purpose of this test is to measure the ability of the compounds to inhibit the allosteric activity of the SHP2 full-length protein. Experimental equipment: a centrifuge (5810R) is purchased from Eppendorf Company; pipettes are purchased from Eppendorf Company and Rainin Company, and microplate readers are purchased from BioTek Company of the United States, SynergyH1 multimode microplate reader.
Experimental method: Homogeneous Full Length SHP-2 Assay Kit (BPS Bioscience, #79330) is used to detect SHP2 activity in vitro. First, add 18 μL of Master Mix to 96-well low-adsorption microplate (NUNC, #267342), that is, 0.5 μL of SHP-2 activating Peptide and 5 mM DTT are included in the reaction buffer with a final concentration of 1×. After centrifugation, add 5 μL of the compound to be tested in DMSO (final DMSO content is 1% (V/V) in each well: dissolve the compound to be tested in DMSO to 1 mM, conduct triple dilution with a total of 10 concentration levels ranging from 1 μM to 0.05 nM in the reaction buffer. After diluting SHP2 in 1× reaction buffer to a final concentration of 0.06 nM, add it to the reaction microwell plate, 2 μL per well. Set a full activity control ([…]) and a full inhibition control (without SHP-2) on the reaction plate, and incubate the reaction mixture at room temperature for 60 minutes after centrifugation.
After incubation, add 25 μL of Substrate solution to each well, containing Substrate with a final concentration of 10 μM and DTT with a final concentration of 5 mM, and after centrifugation, continue to incubate at room temperature for 30 minutes. After the reaction, set the excitation wavelength at 340 nm, the emission wavelength at 455 nm, and the gain value to 75 on the Synergy H1 microplate reader (Biotek) for reading.
Take the full activity control and full inhibition control as the values of Max and Min, and calculate the percentage inhibition rate of the wells treated with the compound based on the positive control wells (DMSO control wells) and negative control wells (no kinase added) on the reaction plate, (inhibition rate percentage=100−[(test compound−Min average value)/(Max average value−Min average value)]×100%. IC50 values of test compounds are calculated by fitting percentage of inhibition and ten-point concentration data to a 4-parameter nonlinear logic formula using GraphPad prism.

Compound	IC50
Nc1nccc(-n2c(=O)[nH]c3nc(N4CCC5(CC4)Cc4cccnc4[C@H]5N)cnc3c2=O)c1Cl [Compound 22, (S)-3-(2-amino-3-chloropyridine-4-yl)-7-(7-amino-5,7-dihydrospiro[cyclopenta[b]pyridine-6,4′-piperidine]-1′-yl)pteridine-2,4(1H,3H)-dione]	≤ 10 nM
C[C@@H]1OCC2(CCN(c3cnc4nc(Sc5cccc(-c6cnccn6)c5Cl)ncc4n3)CC2)[C@@H]1N [Compound 72, (3S,4S)-8-(2-((2-chloro-3-(pyrazine-2-yl)phenyl)mercapto)pteridine-6-yl)-3-methyl-2-oxa-8-azaspiro[4.5]decane-4-amine]	≤ 10 nM
CCn1ccc(-c2cccc(Sc3cnc4nc(N5CCC6(CC5)CO[C@@H](C)[C@H]6N)ncc4n3)c2Cl)n1 [Compound 67, (3S,4S)-8-(6-((2-chloro-3-(1-ethyl-1H-pyrazole-3-yl)phenyl)mercapto)pteridine-2-yl)-3-methylyl-2-oxa-8-azaspiro[4.5]decane-4-amine]	≤ 10 nM
C[C@@H]1OCC2(CCN(c3cnc(Sc4cccc(-c5cnccn5)c4Cl)nc3)CC2)[C@@H]1N [Compound 104, (3S,4S)-8-(2-((2-chloro-3-(pyrazine-2-yl)phenyl)mercapto)pyrimidine-5-yl)-3-methyl-2-oxa-8-azaspiro[4.5]decane-4-amine]	≤ 10 nM
C[C@@H]1OCC2(CCN(c3ccc(Sc4cccc(-c5cnccn5)c4Cl)nn3)CC2)[C@@H]1N [Compound 132, (3S,4S)-8-(3-((2-chloro-3-(pyrazine-2-yl)phenyl)mercapto)pyridazine-6-yl)-3-methyl-2-oxa-8-azaspiro[4.5]decane-4-amine]	≤ 10 nM
C[C@@H]1OCC2(CCN(c3ncc(Sc4cccc(Nc5ncccn5)c4Cl)cn3)CC2)[C@@H]1N [Compound 120, (3S,4S)-8-(5-((2-chloro-3-(pyrimidine-2-amino)phenyl)mercapto)pyrimidine-2-yl)-3-methyl-2-oxa-8-azaspiro[4.5]decane-4-amine]	≤ 10 nM
C[C@@H]1OCC2(CCN(c3cnc(Sc4cccc(Nc5cnccn5)c4Cl)nc3)CC2)[C@@H]1N [Compound 109, (3S,4S)-8-(2-((2-chloro-3-(pyrazine-2-amino)phenyl)mercapto)pyrimidine-5-yl)-3-me thyl-2-oxa-8-azaspiro[4.5]decane-4-amine]	10 to 100 nM
C[C@@H]1OCC2(CCN(c3ncc(Sc4cccc(-c5cccnc5)c4Cl)cn3)CC2)[C@@H]1N [Compound 117, (3S,4S)-8-(5-((2-chloro-3-(pyridine-3-yl)phenyl)mercapto)pyrimidine-2-yl)-3-methyl-2-oxa-8-azaspiro[4.5]decane-4-amine]	≤ 10 nM
CCn1ccc(-c2cccc(Sc3ncc4nc(N5CCC6(CC5)CO[C@@H](C)[C@H]6N)cnc4n3)c2Cl)n1 [Compound 66, (3S,4S)-8-(2-((2-chloro-3-(1-ethyl-1H-pyrazole-3-yl)phenyl)mercapto)pteridine-6-yl)-3-methylyl-2-oxa-8-azaspiro[4.5]decane-4-amine]	≤ 10 nM
C[C@@H]1OCC2(CCN(c3ncc4nc(Sc5cccc(-c6ccn(C)n6)c5Cl)cnc4n3)CC2)[C@@H]1N [Compound 64, (3S,4S)-8-(6-((2-chloro-3-(1-methyl-1H-pyrazole-3-yl)phenyl)mercapto)pteridine-2-y 1)-3-methyl-2-oxa-8-azaspiro[4.5]decane-4-amine]	≤ 10 nM
C[C@@H]1OCC2(CCN(c3ccc4nc(Sc5cccc(-c6ccn(C)n6)c5Cl)ncc4n3)CC2)[C@@H]1N [Compound 65, (3S,4S)-8-(2-((2-chloro-3-(1-methyl-1H-pyrazole-3-yl)phenyl)mercapto)pyridinyl[3,2-d]pyrimidine-6-yl)-3-methyl-2-oxa-8-azaspiro[4.5]decane-4-amine]	≤ 10 nM
N-(3-((5-((3S,4S)-4-amino-3-methyl-2-oxa-8-azaspiro[4.5]decane-8-yl)-1,2,4-triazine-3-yl)mercapto)-2-chlorobenzene)-2-hydroxy-4-oxa-6,7,8,9-tetrahydro-4H-pyridinyl[1,2-a]pyrimidine-3-carboxamide [Compound 138]	≤ 10 nM
C[C@@H]1OCC2(CCN(c3ncc4nc(Sc5cccc(NC(=O)c6c(O)nc7n(c6=O)CCCC7)c5Cl)cnc4n3)CC2)[C@@H]1N [Compound 88, N-(3-((2-((3S,4S)-4-amino-3-methyl-2-oxa-8-azaspiro[4.5]decane-8-yl)pteridine-6-yl)mercapto)-2-chlorophenyl)-2-hydroxy-4-oxo-6,7,8,9-tetrahydro-4H-pyridinyl[1,2-a]p yrimidine-3-carboxamide]	≤ 10 nM
C[C@@H]1OCC2(CCN(c3cnc(Sc4cccc(Nc5ccncn5)c4Cl)nc3)CC2)[C@@H]1N [Compound 110, (3S,4S)-8-(2-((2-chloro-3-(pyrimidine-4-amino)phenyl)mercapto)pyrimidine-5-yl)-3-methyl-2-oxa-8-azaspiro[4.5]decane-4-amine]	10 to 100 nM
CCn1ccc(-c2cccc(Sc3nnc(N4CCC5(CC4)CO[C@@H](C)[C@H]5N)nn3)c2Cl)n1 [Compound 128, (3S,4S)-8-(3-((2-chloro-3-(1-ethyl-1H-pyrazole-3-yl)phenyl)mercapto)-tetrazine-6-yl)-3-methyl-2-oxa-8-azaspiro[4.5]decane-4-amine]	≤ 10 nM
C[C@@H]1OCC2(CCN(c3cnc(Sc4cccc(Nc5cccnc5)c4Cl)nc3)CC2)[C@@H]1N [Compound 107, (3S,4S)-8-(2-((2-chloro-3-(pyridine-3-amino)phenyl)mercapto)pyrimidine-5-yl)-3-me thyl-2-oxa-8-azaspiro[4.5]decane-4-amine]	10 to 100 nM
N[C@H]1c2ccncc2CC12CCN(c1ccc3c(=O)n(-c4cccc(Cl)c4Cl)c(=O)[nH]c3c1)CC2 [Compound 5, (S)-7-(5-Amino-5,7-dihydrospiro[cyclopenta[c]pyridine-6,4′-piperidine]-1′-yl)-3-(2,3-dichlorophenyl)auinazoline-2.4(1H,3H)-dione]	≤ 10 nM
CCn1ccc(-c2cccc(Sc3ncc(N4CCC5(CC4)CO[C@@H](C)[C@H]5N)cn3)c2Cl)n1 [Compound 100, (3S,4S)-8-(2-((2-chloro-3-(1-ethyl-1H-pyrazole-3-yl)phenyl)mercapto)pyrimidine-5-yl)-3-methyl-2-oxa-8-azaspiro[4.5]decane-4-amine]	≤ 10 nM
C[C@@H]1OCC2(CCN(c3ccc4c(=O)n(-c5cccc(Cl)c5Cl)c(=O)[nH]c4c3)CC2)C1N (stereo in doubt) [Compound 1, 7-((3S,4S)-4-amino-3-methyl-2-oxa-8-azaspiro[4.5]decane-8-yl)-3-(2,3-dichlorophenyl)quinazoline-2,4(1H,3H)-dione]	≤ 10 nM
Nc1nccc(-n2c(=O)[nH]c3nc(N4CCC5(CC4)Cc4ncccc4[C@H]5N)cnc3c2=O)c1Cl [Compound 19, (S)-3-(2-amino-3-chloropyridine-4-yl)-7-(5-amino-5,7-dihydrospiro[cyclopenta[b]pyridine-6,4′-piperidine]-1′-yl)pteridine-2,4(1H,3H)-dione]	≤ 10 nM
C[C@@H]1OCC2(CCN(c3cnc4c(=O)n(-c5ccnc(N)c5Cl)c(=O)[nH]c4n3)CC2)[C@@H]1N [Compound 17, 3-(2-amino-3-chloropyridine-4-yl)-7-((3S,4S)-4-amino-3-methyl-2-oxa-8-azaspiro[4.5]decane-8-yl)pteridine-2,4(1H,3H)-dione]	≤ 10 nM
CC(C)n1ccc(-c2cccc(Sc3ncc4nc(N5CCC6(CC5)CO[C@@H](C)[C@H]6N)cnc4n3)c2Cl)n1 [Compound 69, (3S,4S)-8-(2-((2-chloro-3-(1-isopropyl-1H-pyrazole-3-yl)phenyl)mercapto)pteridine-6-yl)-3-methyl-2-oxa-8-azaspiro[4.5]decane-4-amine]	≤ 10 nM
